# In US20100319073A1, “GDE Compositions and Methods” (The Johns Hopkins University, priority 2005, published 2010):
# Test system: clone 45.1 (GDE2)
# Assay: Reverse Northern blot of ventral spinal cord explants grown with or without retinol (differential subtraction screen)
# Assay type: cell-based, chick
# Conditions: explants exposed to retinol, compared with GAPDH
# Protocol: Ventral neural explants were dissected from brachial level HH St17 chick embryos and cultured as described previously for 18 hours (1). The screen was designed to maximize isolation of genes responsive to motor neuron-derived retinoids however genes responsive to paraxial mesoderm-derived retinoids would also have been included. RNA from 100 explants was isolated using Trizol (GIBCO-BRL). cDNAs were generated and amplified using the Marathon cDNA PCR Amplification kit (Stratagene) and the subtraction procedure carried out using the Stratagene PCR Select Suppression kit. Reverse Northern blot analysis was performed as described in the latter kit.
# Spinal motor neuron generation in the chick requires the integration of three different extrinsic signals: sonic hedgehog, fibroblast growth factors, and retinoic acid (RA) (2, 3). All three signaling pathways have been implicated in initial dorsal-ventral patterning of progenitor domains in the spinal cord (FIG. 1A). However, RA signaling is also necessary for the induction of Oligodendrocyte transcription factor 2 (Olig2) in progenitors, and their subsequent differentiation into postmitotic motor neurons (FIG. 1A) (2). […]
smiles,measurement,value
CC1=C(/C=C/C(C)=C/C=C/C(C)=C/CO)C(C)(C)CCC1 [retinol],increase in expression of clone 45.1,approximately 50 fold
